We go through one compound from ChEMBL document CHEMBL6096702, “Discovery of a Novel p38α-MK2 Complex Inhibitor as a Potential Choice for Autoimmune Diseases” (J Med Chem, 2025).

What is called AUC(0-t) is exposure summed from dosing to a finite time, without extrapolation to infinity. Low readings indicate less exposure, high ones more exposure. In general, IC50 refers to the concentration that gives 50% inhibition. A word on the MRT: it is a mean duration of stay, worked out from the concentration-time curve. For orientation: bioavailability means the share of a dose that reaches the circulation, judged against a reference dose that is usually intravenous. The solubility is how much of the substance goes into solution per volume.

Data set [1] is described as follows: Volume of distribution at steady state in male Sprague-Dawley rat at 1 mg/kg, iv measured after 24 hrs by LC-MS/MS analysis. Conditions: in vivo, read-out: Vdss. The format is ADME, organism-based.
Data set [2] relates to Rattus norvegicus. Description: Antiarthritic activity in Mycobacterium tuberculosis H37R-induced female Lewis rat model of arthritis assessed as reduction in joint swelling by measuring paw volume score at 1 mg/kg, po administered twice daily for 15 days starting from day 13 after adjuvant administration by water displacement method. The format is functional, organism-based. Conditions: time 15.0 day.

Data set [3] can be described thus: AUClast in male Beagle dog at 2 mg/kg, po measured after 24 hrs by LC-MS/MS analysis. Conditions: in vivo. The format is ADME, organism-based, Canis lupus familiaris.
Data set [4] deals with Rattus norvegicus. Kind of data set: Antiarthritic activity in Mycobacterium tuberculosis H37R-induced female Lewis rat model of arthritis at 0.3 mg/kg, po administered twice daily for 15 days starting from day 13 after adjuvant administration. The format is functional, organism-based. Conditions: time 15.0 day.
Data set [5] can be described thus: Selectivity ratio of IC50 for inhibition of N-terminal GST-tagged wildtype human P38alpha (4 to 152 residues) extracted from Escherichia coli/GST-tagged PRAK (unknown origin) to IC50 for inhibition of N-terminal GST-tagged wildtype human P38alpha (4 to 152 residues) extracted from Escherichia coli/GST-tagged MK2 (unknown origin).
A short description of data set [6]: AUC (0 to 24 hrs) in female Lewis rat at 1 mg/kg, po measured after 24 hrs by LC-MS/MS analysis. The format is ADME, organism-based. Conditions: in vivo.
Data set [7] is described as follows: AUC (0 to 24 hrs) in female Lewis rat at 3 mg/kg, po measured after 24 hrs by LC-MS/MS analysis. The format is ADME, organism-based. Conditions: in vivo.
Data set [8] is described as follows: Inhibition of N-terminal GST-tagged wildtype human P38alpha (4 to 152 residues) extracted from Escherichia coli/GST-tagged MK2 (unknown origin) assessed as reduction in HSP27 phosphorylation incubated for 2 hrs in presence of ATP and HSP27-FITC peptide by fluorescence polarization based IMAP assay. A general note: Polarisation of emitted light reports the rotation of a fluorescent probe.

Data set [9] deals with MAP kinase-activated protein kinase 2 (Homo sapiens) (UniProt P49137). Description: Inhibition of LPS-induced MK2 phosphorylation in differentiated human THP-1 macrophage cells at 10 to 10000 nM preincubated with compound for 60 mins followed by LPS addition and measured after 30 mins by Western blot analysis. The format is cell-based. Conditions: dose 10-10000 nM, time 90.0 min. A general note: In western blotting, separated proteins are transferred to a membrane and probed.
Chain of MAP kinase-activated protein kinase 2 (Homo sapiens) (P49137 whole entry, looked up): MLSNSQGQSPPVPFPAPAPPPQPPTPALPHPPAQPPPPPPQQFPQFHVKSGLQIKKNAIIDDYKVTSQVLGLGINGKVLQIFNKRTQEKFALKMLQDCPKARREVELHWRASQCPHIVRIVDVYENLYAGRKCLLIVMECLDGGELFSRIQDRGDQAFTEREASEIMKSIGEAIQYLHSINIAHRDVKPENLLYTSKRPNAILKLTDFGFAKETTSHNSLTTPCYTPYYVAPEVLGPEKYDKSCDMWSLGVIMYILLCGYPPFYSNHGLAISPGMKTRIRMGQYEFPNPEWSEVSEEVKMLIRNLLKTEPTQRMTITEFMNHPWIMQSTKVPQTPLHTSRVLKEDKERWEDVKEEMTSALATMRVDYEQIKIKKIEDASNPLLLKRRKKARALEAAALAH

The nature of data set [10]: MRT in male Sprague-Dawley rat at 1 mg/kg, iv measured after 24 hrs by LC-MS/MS analysis. The format is ADME, organism-based. Conditions: in vivo.
The nature of data set [11]: AUClast in male Sprague-Dawley rat at 2 mg/kg, po measured after 24 hrs by LC-MS/MS analysis. Conditions: in vivo. The format is ADME, organism-based.
Data set [12] can be described thus: AUClast in male Beagle dog at 1 mg/kg, iv measured after 24 hrs by LC-MS/MS analysis. The format is ADME, organism-based, Canis lupus familiaris. Conditions: in vivo.
Data set [13] is described as follows: Selectivity ratio of IC50 for inhibition of P38alpha/GST-tagged ATF2 (unknown origin) to IC50 for inhibition of N-terminal GST-tagged wildtype human P38alpha (4 to 152 residues) extracted from Escherichia coli/GST-tagged MK2 (unknown origin).
Data set [14] can be described thus: Oral bioavailability in male Beagle dog at 2 mg/kg measured after 24 hrs by LC-MS/MS analysis. The format is ADME, organism-based, Canis lupus familiaris. Conditions: in vivo.
A short description of data set [15]: Solubility of compound in PBS at pH 7.4 measured after 4 to 24 hrs by LC-MS analysis. Conditions: time 4-24 hrs. The format is physicochemical.

Values after ≈ are worked out from the molar mass of the structure shown. Active and inactive are the calls of the source. No cut-off for these calls is given here.

For the compound `Cc1cnc(-c2ccnc(C(C)(C)O)n2)c(F)c1-n1c(C)cc(O[C@@H](C)c2ncc(F)cc2F)c(C)c1=O`, the Vd in [1] was determined as 1.2 L/kg. The values for the Activity entry with Rattus norvegicus [2] and with Rattus norvegicus [4] were “Active; Significantly Superior Activity Observed Compared To 3 Mg/Kg Of Compound 1” and “Active; Significant Clinical Effect Observed”, respectively. For the same compound, the AUC(0-t) at 24 h in data set [3] was determined as 5080 ng·h/mL; in data set [6], 2390 ng·h/mL; in data set [7], 6480 ng·h/mL; in data set [11] it was 4340 ng·h/mL; in data set [12] it was 3750 ng·h/mL. In addition, the Ratio IC50 in data set [5] turned out to be 1170; in data set [13], 263. The IC50 in data set [8] was found to be 5 nM. The inhibition result in data set [9] was “Active”. For the same compound, in [10], the mean residence time MRT was 2.2 h. The compound also gave a bioavailability in [14] of 68%. In [15], this compound showed a solubility of 88.3 µg/mL (≈ 168 µM).
